Reference: patent US20110124741A1, “RADIOSENSITIZER COMPOSITIONS COMPRISING SCHISANDRA CHINENSIS(TURCZ.)BAILL AND METHODS FOR USE” (ETEN BIOTECHNOLOGY LTD., CO., priority 2009, published 2011)

Columns and labels:
HepG2 cells [1] = experiment: Annexin V-FITC/PI staining apoptosis assay by flow cytometry, with 8 Gy radiation; format: cell-based, human
Description: Annexin V is a 35-36 kDa Ca2+ dependent phospholipid-binding protein that has a high affinity for the membrane phospholipid phosphatidylserine (PS), and binds to cells with exposed PS. Since externalization of PS occurs in the earlier stages of apoptosis, Annexin V staining can identify apoptosis at an earlier stage than assays based on nuclear changes such as DNA fragmentation. A vital dye such as propidium iodide (PI) is typically used in conjunction with Annexin V to identify the viability of the cells. For example, cells that are considered viable are Annexin V and PI negative; cells that are in early apoptosis are Annexin V positive and PI negative; and cells that are in late apoptosis or already dead are both Annexin V and PI positive, wherein the membranes of dead and damaged cells are permeable to PI. The Annexin V staining assay was performed by Annexin V-FITC-Kit purchased from Beckman Coulter, Inc (U.S.A). The protocol was conducted according to the manufacturing manuscript.
HepG2 cells were seeded in 6-cm dish (2.5×10^5 cells/dish) for 24 hours of incubation. Various concentration of ES800 (40 or 80 μg/ml) were added into the culture medium, and then incubated for another 24 hours, wherein 0.008% DMSO was added to the control group. The cells were exposed at 8 Gy of radiation (Linear accelerator, Philips SL-18), and incubated for another 48 hours. After collection, the cells were washed by pre-cold PBS and centrifuged at 500×g. The supernatant was removed and the cells were re-suspended with binding buffer. 1 μl Annexin V-FITC solution and 5 μl PI solution were added into the cell suspension and reacted away from light on ice for 15 min. Finally, 400 μl pre-cold binding buffer was added and the samples were analyzed by flow cytometer within 30 min. The percentages of Annexin V^+ and PI^+/− double staining cells were plotted in FIG. 2.
HepG2 cells were seeded in 6-well plate (2.5×10^5 cells/well) for 24 hours of incubation. Various concentrations of ES800 (40 or 80 μg/ml) and Schisandrin B (12 or 24 μg/ml) were added into the culture medium, and then incubated for another 2 hours, wherein control group was added 0.008% DMSO. The cells were exposed at 8 Gy of radiation (Linear accelerator, Philips SL-18), and incubated for another 70 hours. After collection, the cells were washed by pre-cold PBS and centrifuged at 500×g. Following removing the supernatant, the cells were suspended with binding buffer. 1 μl Annexin V-FITC solution and 5 μl PI solution were added into the suspension and the mixture was reacted away from light on ice for 15 min. Finally, 400 μl pre-cold binding buffer was added and the samples were analyzed by flow cytometer within 30 min. The percentages of Annexin V^+ and PI^+/− double staining cells were plotted in FIG. 7.

HepG2 cells [2] = experiment: Western blot of apoptosis-related proteins (Bcl-2, p21, caspase 9 cleaved form, caspase 3 cleaved form); format: cell-based, human; details: 12 μg/ml in combination with 8 Gy
Protocol: HepG2 cells were seeded in 6-cm dish (2.5×10^5 cells/dish) for 24 hours of incubation. […] The cells were exposed at 8Gy of radiation (Linear accelerator, Philips SL-18), and incubated for another 48 hours. After collection, the cells were washed by PBS for three times, and then centrifuged at 360×g for 5 min. After removing the supernatant, 120 μl CelLytic-M (Sigma) and 1 μl Protease Inhibitor Cocktail (Sigma) were added into the pellet to suspend the cells and then the suspension was incubated at 4° C. for 30 min. The total protein was collected from the supernatant by centrifugation at 27210×g for 10 min.
[…] protein was loaded to run an SDS-PAGE. The gel was then transferred to PVDF and immersed into TTBS solution (2.42 g Tris base/8 g NaCl/0.1% Tween-20/per liter) containing 5% […] milk for blocking. The membrane was reacted with each primary antibody against p21, Bcl-2, caspase 9 (cleaved form), caspase 3 (cleaved form) and β-actin overnight at 4° C. After the reaction, the membrane was washed by TTBS solution three times, and then reacted with appropriate secondary antibody for another 30-min incubation. […] The bands were quantified by GE ImageMaster 2D Platinum Software. […]
The expression level of apoptosis protein in HepG2 was also detected by western blot. […]

With `COc1cc2c(c(OC)c1OC)-c1c(cc3c(c1OC)OCO3)CC(C)C(C)C2` (centres unmarked) [Schisandrin B] the “apoptosis ratio of HepG2, compared with radiation of 8 Gy alone (FIG. 7)” value (HepG2 cells [1]; 24 μg/ml in combination with 8 Gy, 2 h pre-incubation, 70 h after radiation) was “significantly higher”, the “apoptosis ratio of HepG2, compared with the control group (FIG. 7)” value (HepG2 cells [1]; 12 or 24 μg/ml in combination with 8 Gy, 2 h pre-incubation, 70 h after radiation) was “significantly higher” and the “effect on the apoptosis of cancer cells (FIG. 7)” value (HepG2 cells [1]; 12 or 24 μg/ml without exposure of radiation) was “no effect”. For the same molecule, the “effect in inhibition of the growth of cancer cells, compared with radiation therapy alone (FIG. 7)” value (HepG2 cells [1]; Schisandrin B in combination of radiation therapy) was “enhanced effect” and the “expression level of caspase 3 (cleaved form), compared with radiation alone (FIG. 8)” value (HepG2 cells [2]) was “significantly higher”.
